Measured values from patent US8030345B2, “Tricyclic pyrazole derivatives as cannabinoid receptor modulators” (Cadila Healthcare Limited, priority 2004, dated 2011).

Test system: rat
Test: Intake of 5% sucrose solution in rat model
Format: in vivo
Conditions: intake of 5% sucrose solution in animal model (rat)
Text: Compounds of the present invention in the cAMP accumulation model, antagonizes the WIN-55, 212-2 inhibition of forskolin-induced cAMP accumulation in hCB1-CHO cells [J Pharmacol. Exp Ther., 1998, 284, 291-297]. In a mouse vas deferens preparation, representative compounds cause rightward shift of the WIN-55, 212-2 concentration-response curve (Eur. J. Pharm. 1995, 284, 241-247). Representative compounds of the present invention have shown decrease in sucrose solution intake in rat model (Table 1) [Psychopharmacology, 1997, 132, 104-106].

| SMILES | Reduction in sucrose solution consumption w.r.t. control animals |
| --- | --- |
| O=C(NN1CCC(O)CC1)c1nn(-c2ccc(Cl)cc2Cl)c2c1CCOc1cc(Cl)ccc1-2 [Compound 3] | −18.9 ± 14.0 |
| O=C(NN1CCCCC1)c1nn(-c2ccc(Cl)cc2)c2c1CCOc1cc(Cl)ccc1-2 [Compound 8, 8-chloro-1-(4-chloro-phenyl)-4,5-dihydro-1H-6-oxa-1,2-diaza-benzo [e] azulene-3-carboxylic acid piperidin-1-ylamide] | −30.4 ± 4.3 |
| O=C(NN1CC2CCCC2C1)c1nn(-c2ccc(Cl)cc2Cl)c2c1CCOc1cc(Cl)ccc1-2 (centres unmarked) [Compound 5, 8-chloro-1-(2,4-dichloro-phenyl)-4,5-dihydro-1H-6-oxa-1,2-diaza-benzo [e] azulene-3-carboxylic acid (hexahydro-cyclopenta[c]pyrrol-2-yl)-amide] | −23.2 ± 11.4 |
| O=C(NN1CCOCC1)c1nn(-c2ccc(Cl)cc2Cl)c2c1CCOc1cc(Cl)ccc1-2 [Compound 6, 8-chloro-1-(2,4-dichloro-phenyl)-4,5-dihydro-1H-6-oxa-1,2-diaza-benzo [e] azulene-3-carboxylic acid morpholine-4-yl-amide] | −24.9 ± 8.9 |
| O=C(NN1CCCCC1)c1nn(-c2ccc(Cl)cc2Cl)c2c1CCCc1sc(Cl)cc1-2 [Compound 16] | −13.2 ± 15.7 |
